Columns and labels:
NMP19-/- = experiment: XTT cell viability assay (growth curves / growth inhibition); assay type: cell-based, murine; conditions: NMP19-/- cells; at the IC95 concentration of EXAMPLE 3 against NMP53-/- cells; 48h
Protocol: (§1) In brief, cells were seeded in 6-well plates on day 1. On day 2, cells were treated with either EXAMPLE 3 (AURKA Ligand) or with DMSO (control). After 5 days, wells were washed and cells were fixed with 4% PFA and then stained with Crystal Violet solution. Plates were scanned and pictures were saved. (B) Crystal violet colony formation assay of NMP19-/- or NMP53 murine hepatocellular carcinoma cells. In brief, cells were seeded in 6-well plates on day 1. On day 2, cells were treated with MLN8237 (AURKA inhibitor) or with DMSO (control). After 5 days, wells were washed and cells were fixed with 4% PFA and then stained with Crystal Violet solution. Plates were scanned and pictures were saved. (C) AURKA kinase assay with the AURKA ligand EXAMPLE 3. The AURKA kinase assay was performed by Reaction Biology Corp. and it is based on radiometric ATP quantification. Compounds were received as 10 mM stock. […] Afterwards, an XTT cell viability assay was performed, based on the quantification of metabolic activity of alive cells. […] Finally, slides were mounted and analyzed in a fluorescent microscope. Bar graphs represent quantification of abnormal/normal spindles levels of (B) NMP53^-/- and (C) NMP19^-/- mitotic cells at time points after treatment with 15 nM of EXAMPLE 3. […] Subsequently, they were analyzed in a Flow Cytometry device for quantification of the amount of PI in each cell. […]

[1] = tested on: BNL CL.2 (non-transformed murine embryonic liver cell line); experiment: as above; assay type: cell-based; conditions: BNL CL.2 cells; at the IC95 concentration of EXAMPLE 3 against NMP53-/- cells; 48h
Protocol: as §1

TPX2 = experiment: Cellular Thermal Shift Assay (CETSA) in NMP53-/- cells; assay type: cell-based, murine; conditions: 43.7- 47.9 °C
AURKA = molecular target: T1, AURKA (Mus musculus, UniProt P97477); experiment: as above; assay type: cell-based, murine; conditions: 43.7- 47.9 °C
T1 construct: endogenous in cells; host or cells: NMP53-/- murine hepatocellular carcinoma cells
T1 sequence (P97477 1-395): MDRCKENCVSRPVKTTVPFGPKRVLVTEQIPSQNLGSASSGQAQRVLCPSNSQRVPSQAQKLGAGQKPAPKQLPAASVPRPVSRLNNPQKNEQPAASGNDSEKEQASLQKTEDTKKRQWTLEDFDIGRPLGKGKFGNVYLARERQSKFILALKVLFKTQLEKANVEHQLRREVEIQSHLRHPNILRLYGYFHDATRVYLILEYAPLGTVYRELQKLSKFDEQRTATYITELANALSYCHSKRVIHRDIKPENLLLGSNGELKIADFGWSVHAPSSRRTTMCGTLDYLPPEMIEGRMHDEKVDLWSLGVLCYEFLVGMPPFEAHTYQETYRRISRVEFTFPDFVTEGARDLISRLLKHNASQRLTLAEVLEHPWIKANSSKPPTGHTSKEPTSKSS

thermal stabilization of AURKA (SDS-Page of soluble fraction) (AURKA): stabilized
SMILES: Cn1cc(-c2ccc(CNc3ccnc4[nH]c(CCc5ccco5)nc34)cc2)cn1 [Example 3, 2-(2-(furan-2-yl)ethyl)-N-(4-(1-methyl-1H-pyrazol-4-yl)benzyl)-3H-imidazo[4,5-b]pyridin-7-amine]
growth inhibition in percentage (NMP19-/-): no significant growth inhibition
growth inhibition in percentage [1]: no significant growth inhibition
thermal stabilization of TPX2 (SDS-Page of soluble fraction) (TPX2): stabilized

— patent EP4620957A1, “IMIDAZO[4,5-B]PYRIDIN-7-AMINE COMPOUNDS BINDING AURORA KINASE A AND USES THEREOF” (Eberhard Karls Universität Tübingen, priority 2024, dated 2025)
